Measured values reported in US20250332173A1, “COMPOUNDS AND METHODS FOR MODULATING NUCLEIC ACID SPLICING” (REMIX THERAPEUTICS INC., priority 2021, published 2025).
Where two headings read alike, the source gives them in different places.

What was measured:
Type in all cases: cell-based, human
[1] = tested on: HTT mRNA; experiment: RT-qPCR splicing assay, HTT canonical junction (CJ) and alternative junction (AJ) mRNA; details: Homo sapiens; for AC50: increase in HTT alternative junction (AJ) mRNA, read-out: HTT AJ AC50
How it was run: (§1)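 Following a 24-hour incubation of A673 or K562 cells with serially diluted compound (3-fold steps, highest final 10 uM), the lysates undergo cDNA synthesis plus qPCR. Canonical and alternative junctions are each quantified against PPIA, GAPDH or GUSB.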

[2] = tested on: MYB mRNA; experiment: RT-qPCR splicing assay, MYB canonical junction (CJ) and alternative junction (AJ) mRNA; details: Homo sapiens; for AC50: increase in MYB alternative junction (AJ) mRNA, read-out: MYB AJ AC50
How it was run: as §1

[3] = tested on: Target C; experiment: HiBiT protein abundance assay, Target C (Promega Nano-Glo HiBiT Lytic Detection System, knock-in K562 cell line); details: Homo sapiens, K562, 24 h, HiBiT K562 cell line, 24 hours, top dose 10 μM; read-out: Effect on protein abundance, Target C (IC50 category)
How it was run: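 HiBiT knock-in K562 cells (10,000/well) were treated for 24 h at 37 °C with a 10-point 3-fold dilution series, top final concentration 10 μM, DMSO ≤0.25%. Lytic HiBiT luminescence was read, normalized to unmodified K562 and DMSO-treated controls, and IC50 was interpolated from a four-parameter logistic fit.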

[4] = decrease in HTT canonical junction (CJ) mRNA, RT-qPCR, read-out: HTT CJ IC50
[5] = canonical junction qPCR panel, Table 5, read-out: HTT (decrease in CJ mRNA levels, IC50)
[6] = canonical junction qPCR panel, Table 5, read-out: MYB (decrease in CJ mRNA levels, IC50)
[7] = decrease in MYB canonical junction (CJ) mRNA, RT-qPCR, read-out: MYB CJ IC50

| Structure (SMILES) | IC50 [1, 4] [µM] | IC50 [1, 5] [µM] | IC50 [2, 6] [µM] | IC50 [2, 7] [µM] | IC50 [3] [µM] | AC50 ([1]; RT-qPCR) [µM] | AC50 ([2]; RT-qPCR) [µM] |
| --- | --- | --- | --- | --- | --- | --- | --- |
| Cc1c(O)c(-c2ncc3c(=O)n([C@@H]4C[C@H]5C[C@@H]4CN5)ccc3n2)cc2cn(C)nc12 [Compound 1445, 6-[(1R,4R,5R)-2-azabicyclo[2.2.1]heptan-5-yl]-2(6-hydroxy-2,7-dimethyl-indazol-5-yl)pyrido[4,3-d]pyrimidin-5-one] | > 10 | > 10 | 1 to 10 | > 10 | > 10 | > 10 | 1 to 10 |
| Cc1c(O)c(-c2ccc3c(=O)n([C@H]4CCNC4)ccc3n2)cc2cn(C)nc12 [Compound 1449, 2-(6-hydroxy-2,7-dimethyl-indazol-5-yl)-6-[(3S)-pyrrolidin-3-yl]-1,6-naphthyridin-5-one] | 1 to 10 | 1 to 10 | 0.1 to 1 | 0.1 to 1 | 1 to 10 | 1 to 10 | 0.1 to 1 |
| Cc1c(O)c(-c2ccc3c(=O)n([C@@H]4CCNC4)ccc3n2)cc2cn(C)nc12 [Compound 1450, 2-(6-hydroxy-2,7-dimethyl-indazol-5-yl)-6-[(3R)-pyrrolidin-3-yl]-1,6-naphthyridin-5-one] | 1 to 10 | 1 to 10 | 0.1 to 1 | 0.1 to 1 | 1 to 10 | 1 to 10 | 0.1 to 1 |
| Cc1c(O)c(-c2ncc3c(=O)n([C@@H]4C[C@@H](C)N[C@@H](C)C4)ccc3n2)cc2cn(C)nc12 [Compound 1453, 6-[(2S,6R)-2,6-dimethyl-4-piperidyl]-2-(6-hydroxy-2,7-dimethyl-indazol-5-yl)pyrido[4,3-d]pyrimidin-5-one] | > 10 | 1 to 10 | 0.1 to 1 | 1 to 10 | > 10 | 1 to 10 | 0.1 to 1 |
| Cc1c(O)c(-c2ncc3c(=O)n(C4C[C@@H](C)N[C@H](C)C4)ccc3n2)cc2cn(C)nc12 (stereo partly drawn) [Compound 1454, 6-[(2R,6R)-2,6-dimethyl-4-piperidyl]-2-(6-hydroxy-2,7-dimethyl-indazol-5-yl)pyrido[4,3-d]pyrimidin-5-one] | 1 to 10 | 0.1 to 1 | 0.1 to 1 | 0.1 to 1 | 1 to 10 | 0.1 to 1 | 0.1 to 1 |
| Cc1cn2cc(-c3cc(F)c4c(=O)n([C@@H]5CNC[C@H]5F)ccc4c3)cc(F)c2n1 [Compound 1456] | > 10 | > 10 | 0.1 to 1 | 0.1 to 1 | > 10 | > 10 | 0.1 to 1 |
| Cc1cn2cc(-c3ncc4c(=O)n([C@@H]5CCNC6(CC6)C5)ccc4n3)cc(F)c2n1 [Compound 1457, 6-[(7R)-4-azaspiro[2.5]octan-7-yl]-2-(8-fluoro-2-methyl-imidazo[1,2-a]pyridin-6-yl)pyrido[4,3-d]pyrimidin-5-one] | 1 to 10 | 0.1 to 1 | 0.1 to 1 | 0.1 to 1 | 1 to 10 | 0.1 to 1 | 0.1 to 1 |

Now from value to molecule, other results behind:

| IC50 [1, 4] [µM] | IC50 [1, 5] [µM] | IC50 [2, 6] [µM] | IC50 [2, 7] [µM] | IC50 [3] [µM] | Structure (SMILES) | AC50 ([1]; RT-qPCR) [µM] | AC50 ([2]; RT-qPCR) [µM] |
| --- | --- | --- | --- | --- | --- | --- | --- |
| 1 to 10 | 1 to 10 | 0.1 to 1 | 0.1 to 1 | 1 to 10 | Cc1cn2nc(-c3ccc4c(=O)n([C@@H]5CCNC5)ccc4n3)cc(C)c2n1 [Compound 1438, 2-(2,8-dimethylimidazo[1,2-b]pyridazin-6-yl)-6-[(3R)-pyrrolidin-3-yl]-1,6-naphthyridin-5-one] | 1 to 10 | 0.1 to 1 |
| 0.1 to 1 | 0.1 to 1 | < 0.1 | < 0.1 | 0.1 to 1 | Cc1c(O)c(-c2ncc3c(=O)n([C@H]4CCN[C@@H](C)C4)ccc3n2)cc2cn(C)nc12 [Compound 1441, 2-(6-hydroxy-2,7-dimethyl-indazol-5-yl)-6-(2-methyl-4-piperidyl)pyrido[4,3-d]pyrimidin-5-one] | 0.1 to 1 | < 0.1 |
| 1 to 10 | 0.1 to 1 | 0.1 to 1 | < 0.1 | 0.1 to 1 | Cc1c(O)c(-c2ncc3c(=O)n(C4CCNC(C)(C)C4)ccc3n2)cc2cn(C)nc12 (stereo not drawn) [Compound 1442] | 0.1 to 1 | 0.1 to 1 |
| 0.1 to 1 | 0.1 to 1 | 0.1 to 1 | 0.1 to 1 | 0.1 to 1 | Cc1c(O)c(-c2ccc3c(=O)n(C4CC(C)NC(C)C4)ccc3n2)cc2cn(C)nc12 (stereo not drawn) [Compound 1447, 6-(2,6-dimethyl-4-piperidyl)-2-(6-hydroxy-2,7-dimethyl-indazol-5-yl)-1,6-naphthyridin-5-one] | 0.1 to 1 | 0.1 to 1 |
| 1 to 10 | 0.1 to 1 | 0.1 to 1 | 0.1 to 1 | 0.1 to 1 | Cc1cn2cc(-c3cc(O)c4c(=O)n(C5CCNCC5)ccc4n3)cc(F)c2n1 [Compound 1448] | 0.1 to 1 | 0.1 to 1 |
| 0.1 to 1 | 0.1 to 1 | < 0.1 | 0.1 to 1 | 0.1 to 1 | Cn1cc2cc(-c3ccc4c(=O)n([C@H]5CCNC5)ccc4n3)c(O)c(F)c2n1 [Compound 1451, 2-(7-fluoro-6-hydroxy-2-methyl-indazol-5-yl)-6-[(3S)-pyrrolidin-3-yl]-1,6-naphthyridin-5-one] | 0.1 to 1 | < 0.1 |
| 0.1 to 1 | 0.1 to 1 | < 0.1 | 0.1 to 1 | 0.1 to 1 | Cn1cc2cc(-c3ccc4c(=O)n([C@@H]5CCNC5)ccc4n3)c(O)c(F)c2n1 [Compound 1452, 2-(7-fluoro-6-hydroxy-2-methyl-indazol-5-yl)-6-[(3R)-pyrrolidin-3-yl]-1,6-naphthyridin-5-one] | 0.1 to 1 | < 0.1 |
| 0.1 to 1 | 0.1 to 1 | < 0.1 | < 0.1 | 0.1 to 1 | Cc1c(O)c(-c2ncc3c(=O)n(C4C[C@H](C)N[C@@H](C)C4)ccc3n2)cc2cn(C)nc12 (stereo partly drawn) [Compound 1455, 6-[(2S,6S)-2,6-dimethyl-4-piperidyl]-2-(6-hydroxy-2,7-dimethyl-indazol-5-yl)pyrido[4,3-d]pyrimidin-5-one] | 0.1 to 1 | < 0.1 |
